Test results from patent US10035778B2, “Meta-azacyclic amino benzoic acid derivatives as pan integrin antagonists” (Saint Louis University, priority 2015, dated 2018).

Columns and labels:
[1] = target: Recombinant human integrin α8β1 (Homo sapiens (Human), UniProt P05556+P53708); assay: Solid Phase Receptor Assay (SPRA) for α8β1 function; assay type: binding; settings: mouse nephronectin-coated plate
Protocol: 7. Solid Phase Receptor Assay (SPRA) for α8β1 Function
Recombinant mouse nephronectin protein (R&D Systems, Inc, 4298-NP) diluted to 1 μg/mL in TBS+ buffer (25 mM Tris pH 7.4, 137 mM NaCl, 2.7 mM KCl, 1 mM CaCl2, 1 mM MgCl2, 1 mM MnCl2) was added to wells (50 μl/well) of a 96-well half-well transparent microtiter plate (Greiner 675061), and incubated overnight at 4° C. Wells were washed 3 times with 150 μL TBS+ and 150 μL of blocking buffer (TBS+ with 1% bovine serum albumin, Sigma A7906) were added. The plate was incubated for 1 hr at 37° C. and then washed 3× with TBS+. Recombinant human integrin α8β1 (R&D Systems, pre-launch) was diluted to 0.25 μg/mL in TBS+/0.1% bovine serum albumin. Compounds were diluted 1:100 into the integrin solution and 50 μL added to empty wells of the washed nephronectin-coated plate according to a standard template with each sample repeated in triplicate. After incubation for two hours at room temperature, the plate was washed 3× with 150 μL of TBS+. To each well, 50 μL of biotinylated anti-β antibody (R&D Systems, BAF1778) at 0.5 μg/mL in TBS+/0.1% BSA were added and the plate was covered and incubated for 1 hr at room temperature. After washing the plate 3× with 150 μL of TBS+ buffer, 50 μL of streptavidin-conjugated horseradish peroxidase (R&D Systems, DY998) diluted in TBS+ blocking buffer were added to the wells and the plate incubated for 20 min at room temperature. The plate was washed 3× with TBS+ followed by 50 μL of TMB substrate (Sigma T4444) added to each well and the plate incubated for 20 min at room temperature. Plates were read by colorimetric detection at 650 nm wavelength using a Tecan Safire II plate reader. Concentration-response curves were constructed by non-linear regression (best fit) analysis, and IC50 values were calculated for each compound.

[2] = IV cassette pharmacokinetic study in male Sprague-Dawley rats (Saint Louis University); assay type: in vivo; settings: plasma; male Sprague-Dawley rat, 1 mg/kg IV cassette, sampling to 24 h; read-out: plasma t½ after 1 mg/kg IV bolus dose in rat (converted)
Protocol: (§1) A minimally sufficient volume of dimethylsulfoxide (DMSO) was added to each test compound to achieve solubilization. For intravenous (IV) delivery, compounds were then formulated as solutions in glycerol formal: saline (either 20:80 or 40:60 v/v) (Sigma Chemicals, St. Louis). For oral (PO) administration, compounds were formulated with 0.5% methylcellulose. Five to six compound solutions were combined into a singled mixed solution for IV and PO cassette administration with final DMSO concentrations <0.6% or <1.2%, for the IV and PO cassettes, respectively. Analytes were detected in test samples using an LC/MS/MS (liquid chromatography/mass spectrometry) system consisting of an LC-20AD pump (Shimadzu, Kyoto, Japan), an HTC PAL autosampler (Leap technologies, Carrboro, N.C.), and a Sciex API-4000 mass spectrometer in ESI mode (AB Sciex, Foster City, Calif.). An Amour C18 reverse phase column (Analytical Sales and Services, Pompton Plains, N.J.) was used for chromatographic separation.
(§2) Pharmacokinetic (PK) studies conducted at Saint Louis University used male Sprague-Dawley rats with an initial body weight of 200 to 220 g. IV PK studies were performed with the following compounds: Examples 1-3 and 5-17 and comparison compounds C12-C18, C29, and C30. Animals were allowed free access to food and water. Rats were individually housed and connected to jugular vein catheters. Each cassette formulation was administered intravenously to two rats (1 mL/kg body weight). Each cassette formulation contained 5-6 compounds at 1 mg/kg in either 20:80 or 40/60 glycerol formal/saline (v/v). Blood was collected manually via the catheter into lithium-heparin tubes at 0.017, 0.083, 0.5, 1, 2, 4, 6 and 24 hours post-dose. Animals were euthanized with CO2 at the end of the experiment.
(§3) Internal standard was added to all samples at 200 ng/mL (final), as well as 150 μL of acetonitrile. Plasma samples (50 μL total volume) were diluted with control nave rat plasma as appropriate to bring the sample measurement into the linear dynamic range of the standard curve. The samples were capped and mixed on a multi-plate vortexer for 5 minutes and centrifuged for 5 minutes at 3200 rmp. The supernant was transferred to 96-well sample plate and capped for LC/MS/MS analysis. Compounds were optimized and monitored for their respective MRM transitions. The mobile phases consisted of 0.1% formic acid (aqueous) and 100% acetonitrile (organic) with an Amour C18 reverse phase column (2.1×30 mm, 5 micron) at a flow rate of 0.35 mL/min. The starting phase was 10% acetonitrile for the 0.9 minutes then increased to 90% acetonitrile over 0.4 minutes, and was maintained for an additional 0.2 minutes before returning to 10% acetonitrile over 0.4 minutes. The 10% acetonitrile was held for an additional 1.6 minutes. Peak areas were integrated using Analyst 1.5.1 (AB Sciex, Foster City, Calif.).

[3] = Oral (PO) cassette pharmacokinetic study in male Sprague-Dawley rats; assay type: in vivo; settings: plasma; male Sprague-Dawley rat, 2 mg/kg oral gavage cassette in 0.5% methylcellulose; read-out: AUC (0-inf) after a 2 mg/kg PO dose in rat
Protocol: as §1, §2
Oral PK studies were conducted with the following compounds: Examples 1-3 and 5-17 and comparison compounds C12, C14-16 and C29-30. The PO cassette formulations were administered via oral gavage to two rats (10 mL/kg body weight) containing 5-6 compounds per cassette. The oral dose was administered at 2 mg/kg/compound in 0.5% methylcellulose. Blood collection time points were 0.25, 0.5, 1, 2, 4, 6 and 24 hours post-dose into lithium-heparin tubes. Animals were euthanized with CO2 at the end of the experiment.
as §3

Sequence of Recombinant human integrin α8β1 (P53708 39-1012): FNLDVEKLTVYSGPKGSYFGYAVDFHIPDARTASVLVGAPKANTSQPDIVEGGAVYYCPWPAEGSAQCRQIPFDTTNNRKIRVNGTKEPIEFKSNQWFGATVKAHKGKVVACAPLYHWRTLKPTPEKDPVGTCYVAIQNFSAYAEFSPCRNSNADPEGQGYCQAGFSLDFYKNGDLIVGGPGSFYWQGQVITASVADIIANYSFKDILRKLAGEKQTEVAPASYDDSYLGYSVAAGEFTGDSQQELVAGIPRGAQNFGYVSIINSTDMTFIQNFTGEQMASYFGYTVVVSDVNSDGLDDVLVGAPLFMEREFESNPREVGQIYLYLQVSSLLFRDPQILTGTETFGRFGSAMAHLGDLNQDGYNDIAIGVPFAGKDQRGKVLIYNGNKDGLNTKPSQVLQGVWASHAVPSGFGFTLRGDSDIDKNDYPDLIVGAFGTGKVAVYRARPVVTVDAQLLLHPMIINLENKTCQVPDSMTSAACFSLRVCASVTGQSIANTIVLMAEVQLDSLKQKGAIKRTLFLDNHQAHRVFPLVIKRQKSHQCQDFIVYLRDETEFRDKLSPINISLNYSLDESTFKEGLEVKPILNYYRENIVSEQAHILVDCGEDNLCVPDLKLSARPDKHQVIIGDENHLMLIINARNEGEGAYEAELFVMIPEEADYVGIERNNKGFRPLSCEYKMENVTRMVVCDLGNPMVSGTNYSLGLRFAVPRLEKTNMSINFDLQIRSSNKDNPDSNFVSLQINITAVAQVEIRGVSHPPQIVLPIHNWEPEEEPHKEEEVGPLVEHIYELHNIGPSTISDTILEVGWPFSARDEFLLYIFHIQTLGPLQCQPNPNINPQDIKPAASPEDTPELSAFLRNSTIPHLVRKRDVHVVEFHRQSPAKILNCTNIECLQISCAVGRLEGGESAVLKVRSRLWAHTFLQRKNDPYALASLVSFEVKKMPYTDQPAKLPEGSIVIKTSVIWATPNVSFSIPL
Sequence of Recombinant human integrin α8β1 (P05556 21-728): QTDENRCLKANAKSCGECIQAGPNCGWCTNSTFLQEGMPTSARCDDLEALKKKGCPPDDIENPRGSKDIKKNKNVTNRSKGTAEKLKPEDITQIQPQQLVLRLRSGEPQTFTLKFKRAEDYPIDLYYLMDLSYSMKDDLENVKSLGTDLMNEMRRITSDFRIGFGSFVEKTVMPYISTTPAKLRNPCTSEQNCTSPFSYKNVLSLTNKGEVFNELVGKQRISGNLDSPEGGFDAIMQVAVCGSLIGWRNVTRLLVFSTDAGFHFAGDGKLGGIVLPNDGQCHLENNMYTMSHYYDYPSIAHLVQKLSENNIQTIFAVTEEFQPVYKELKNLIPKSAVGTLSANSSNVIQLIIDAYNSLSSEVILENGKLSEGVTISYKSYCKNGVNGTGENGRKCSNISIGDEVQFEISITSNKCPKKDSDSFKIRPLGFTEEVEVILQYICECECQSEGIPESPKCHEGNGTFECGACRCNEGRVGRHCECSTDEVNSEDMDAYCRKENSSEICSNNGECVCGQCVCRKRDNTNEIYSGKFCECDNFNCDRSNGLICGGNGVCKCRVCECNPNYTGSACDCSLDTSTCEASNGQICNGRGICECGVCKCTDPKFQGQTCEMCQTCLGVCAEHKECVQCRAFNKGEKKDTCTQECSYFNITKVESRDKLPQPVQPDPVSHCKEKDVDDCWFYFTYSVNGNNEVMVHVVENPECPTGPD

IC50 [1] [nM]	half-life [2] [h]	AUC(0-inf) [3] [ng·h/mL]	Structure (SMILES)
0.8	13.7	9110	Cc1cc(Cl)cc([C@H](CC(=O)O)NC(=O)CNC(=O)c2cc(O)cc(NC3=NCC(O)CN3)c2)c1 (stereo partly drawn) [Example 12, (3S)-3-[3-chloro-5-methyl-phenyl)-3-(2-(3-hydroxy-5-((5-hydroxy-1,4,5,6-tetrahydropyrimidin-2-yl)amino)benzamido)acetamido)propanoic acid]
0.4	34.2	6500	O=C(O)C[C@H](NC(=O)CNC(=O)c1cncc(NC2=NCC(O)CN2)c1)c1cc(Br)cc(Br)c1 (stereo partly drawn) [Example 14, (3S)-3-(3,5-dibromophenyl)-3-[[2-[[5-[(5-hydroxy-1,4,5,6-tetrahydropyrimidin-2-yl)amino]pyridine-3-carbonyl]amino]acetyl]amino]propanoic acid]
1.2	23.8	15600	O=C(O)C[C@H](NC(=O)CNC(=O)c1cc(O)cc(NC2=NCC(O)CN2)c1)c1cc(Cl)cc(Cl)c1 (stereo partly drawn) [Example 15, (3S)-3-[3,5-dichloro-phenyl)-3-(2-(3-hydroxy-5-((5-hydroxy-1,4,5,6-tetrahydropyrimidin-2-yl)amino)benzamido)acetamido)propanoic acid]
0.5	3.2	6810	O=C(O)C[C@H](NC(=O)CNC(=O)c1cc(O)cc(NC2=NCC(O)CN2)c1)c1cc(Cl)cc(OC(F)(F)F)c1 (stereo partly drawn) [Example 16, (3S)-3-[3-chloro-5-(trifluoromethoxy)phenyl)-3-(2-(3-hydroxy-5-((5-hydroxy-1,4,5,6-tetrahydropyrimidin-2-yl)amino)benzamido)acetamido)propanoic acid]
0.7	4.1	13100	O=C(O)C[C@H](NC(=O)CNC(=O)c1cc(O)cc(NC2=NCC(O)CN2)c1)c1cc(Br)cc(OC(F)(F)F)c1 (stereo partly drawn) [Example 17, (3S)-3-(3-bromo-5-(trifluoromethoxy)phenyl)-3-(2-(3-hydroxy-5-((5-hydroxy-1,4,5,6-tetrahydropyrimidin-2-yl)amino)benzamido)acetamido)propanoic acid]

Structure (SMILES)	IC50 [1] [nM]	half-life [2] [h]	AUC(0-inf) [3] [ng·h/mL]
O=C(O)C[C@H](NC(=O)CNC(=O)c1cc(O)cc(NC2=NCC(O)CN2)c1)c1cc(F)cc(Br)c1 (stereo partly drawn) [Example 13, (3S)-3-[3-bromo-5-fluoro-phenyl)-3-(2-(3-hydroxy-5-((5-hydroxy-1,4,5,6-tetrahydropyrimidin-2-yl)amino)benzamido)acetamido)propanoic acid]	0.6	11	13900
